In PubChem BioAssay AID1996:
Values after ≈ are worked out from the molar mass of the structure shown.

Details: buffer; pH 7.4; 200.0 µM

SMILES	solubility kinetic [µg/mL]
O=C(Cn1cc(C(=O)C2CC2)c2ccccc21)Nc1ccccc1Cl	< 0.4
CCOC(=O)C1CCN(c2ncnc3cc(OC)c(OC)cc23)CC1	51.3 (≈ 149 µM)
O=C(c1ccccc1)N1CCN(CCc2ccccn2)CC1	> 44.3
CSCCC(NC(=O)c1ccco1)C(=O)Nc1ccncc1 (stereo not given)	> 47.9
COc1cccc(C2=NOC(C(=O)NCc3cccnc3)C2)c1 (stereo not given)	> 46.7
CCOC(=O)C1(Cc2cccc(F)c2)CCN(C(=O)C2CCC2)CC1	> 52.1
Cc1csc(C(=O)O)c1NC(=O)c1c(Cl)cccc1Cl	40.7 (≈ 123 µM)
CCC(=O)N(CCc1ccccc1)Cc1cc2cccc(C)c2[nH]c1=O	2.3 (≈ 6.6 µM)
CC(C)CC(=O)NC(=S)Nc1ccc(CN2CCOCC2)cc1	> 50.3
Cc1ccc(SCC(=O)NCc2ccc(F)cc2)cc1	9.5 (≈ 32.8 µM)
N#C/C(=C\c1ccc(O)c(Br)c1)C(=O)N1CCCCC1	> 50.3
O=C(NCc1ccco1)c1ccc2c(c1)N(Cc1ccccc1)CCS2	12.9 (≈ 35.4 µM)
O=c1[nH]c2ccc(S(=O)(=O)N3CCN(c4ccc(F)cc4)CC3)cc2o1	5.7 (≈ 15.1 µM)
CC1CCN(C(=O)CN2C(=O)c3cccc4cccc(c34)C2=O)CC1	2.1 (≈ 6.24 µM)
COc1ccc2c(c1OC)C(=O)N1C2SC(C)(C)[C@H]1C(=O)NC1CC1 (stereo not given in full)	> 54.4
S=C(NCC1(c2ccccc2)CCCC1)Nc1ccccc1	0.8 (≈ 2.58 µM)
CCOc1cccc(C(=O)NC2=NCCS2)c1	26.1 (≈ 104 µM)
CN(Cc1ccccc1)c1ncc(C=O)s1	27.8 (≈ 120 µM)
CC1CCCN(C(=O)NC(=O)c2ccc(Cl)cc2)C1 (stereo not given)	41.8 (≈ 149 µM)
S=C(NCc1ccco1)N1CCN(c2ccccc2Cl)CC1	19.5 (≈ 58.1 µM)
Cc1cc(NC(=O)CN2C(=O)NC(C)(c3ccccc3Cl)C2=O)no1 (stereo not given)	28 (≈ 77.2 µM)
CC(Cc1c[nH]c2ccccc12)C(=O)NCc1ccco1 (stereo not given)	> 42.4

SMILES	solubility kinetic [µg/mL]
COc1ccccc1C(=O)O/N=C(\c1ccccc1)c1ccncc1	34 (≈ 102 µM)
Cc1cccc(C(=O)N/C(=C\c2ccco2)C(=O)N2CCCCCC2)c1	50.3 (≈ 143 µM)
Cc1cc([N+](=O)[O-])nn1CCCC(=O)NC1CCCCC1	> 44.2
CCOc1ccc(NC(=O)CNC(=O)c2cccs2)cc1	7.8 (≈ 25.6 µM)
COC(=O)c1ccc(C2C(C#N)=C(N)Oc3cc(N)ccc32)cc1 (stereo not given)	11.2 (≈ 34.9 µM)
CC(C)Oc1cccc(OCCN2C(=O)c3ccccc3C2=O)c1	13.8 (≈ 42.4 µM)
N#CCCN(C(=O)COC(=O)/C=C/c1cccs1)c1ccccc1	9.9 (≈ 29.1 µM)
O=C(Cn1cc(C(F)(F)F)cc(Cl)c1=O)NCc1ccccc1	7.8 (≈ 22.6 µM)
COc1cc(NC(=O)Cc2ccccc2)nc(OC)n1	> 41
CCN(CC)CC(=O)c1c(N)n(Cc2ccccc2)c(=O)n(C)c1=O	51.4 (≈ 149 µM)
CCNC(=O)C(CCSC)NS(=O)(=O)c1ccc(C)cc1 (stereo not given)	> 49.6
O=C1N=c2ccccc2=C1c1sc(Nc2cccc(O)c2)nc1O	0.7 (≈ 2.07 µM)
Cc1sc2nc(C)n(/N=C/N(C)C)c(=O)c2c1C	> 39.7
COc1ccc(NC(=O)CN(C)C2CCCCC2)cc1Cl	32.7 (≈ 105 µM)
Cc1cccc2c3c([nH]c12)CCN(C)C3	> 30
COCCn1c(SCC(=O)Nc2ccc3[nH]c(=O)[nH]c3c2)nc2ccccc21	19.4 (≈ 48.8 µM)
Cc1ccccc1OCCCn1c(CO)nc2ccccc21	12.9 (≈ 43.5 µM)
Cc1cc2[nH]cnc2c([N+](=O)[O-])c1C	> 28.7
C/C(=N\O)c1ccn(S(=O)(=O)c2ccc(Cl)cc2)c1	8.4 (≈ 28.1 µM)
CCN(CC)c1ccc(NC(=S)NCC2CCCO2)cc1 (stereo not given)	34.1 (≈ 111 µM)
Cc1ccc(C)c(C(C)NC(=O)c2ccncc2)c1 (stereo not given)	36 (≈ 142 µM)
Cc1ccsc1C(=O)N(C)C1CCS(=O)(=O)C1 (stereo not given)	> 41

SMILES	solubility kinetic [µg/mL]
COc1ccc(C(=O)Nc2ccc(N3CCN(C)CC3)cc2)cc1	42.7 (≈ 131 µM)
CC(=O)N(c1ccc(C)cc1)c1nc(C)cc(C)c1C#N	> 41.9
CC(C)(C)c1ccccc1NC(=O)c1cc(-c2ccncc2)nc2ccccc12	10.8 (≈ 28.3 µM)
Cc1nc(-c2ccccn2)nc(N(C)c2ccccc2)c1Cl	41.7 (≈ 134 µM)
COC(=O)c1ccccc1NC(=O)c1cc(C)no1	1.1 (≈ 4.23 µM)
CCC[C@H](N[C@@H](CCC)[C@H](O)c1ccccc1)[C@H](O)c1ccccc1	5.4 (≈ 15.8 µM)
Cc1cccc(NC(=O)CN2C(=O)C(C)Oc3ccccc32)n1 (stereo not given)	> 46.7
COc1cccc(NC(=O)C(=O)NCCCN2CCCC2=O)c1	> 47.9
CC(C)CN(C(=O)C1CCCCC1)C1CCS(=O)(=O)C1 (stereo not given)	> 45.2
Fc1ccc(CNC2CCN(Cc3ccccc3)CC2)cc1	35.7 (≈ 120 µM)
CCOC(=O)c1sc(=NC(=O)c2ccc(F)cc2)n(C)c1C	1.4 (≈ 4.34 µM)
O=C(CN1CCN(c2ccc(F)cc2)CC1)Nc1ccccc1	> 47
S=C(NC1CCCCC1)N1CCCCC1	26.3 (≈ 116 µM)
CC(C)(C)C(=O)OCc1nc(-c2ccc(Cl)cc2)cs1	< 0.7
COC(=O)[C@H](CC(C)C)NC(=O)Nc1ccc(F)cc1	> 42.3
CCOC(=O)C1=C(COC(=O)Cc2ccccc2)NC(=O)NC1C (stereo not given)	> 49.9
O=C(Nc1nc2ccccc2[nH]1)c1cccc(Br)c1	0.6 (≈ 1.9 µM)
Cc1ccc(NC(=O)C2CC(Cl)=CCC2C(=O)O)c([N+](=O)[O-])c1 (stereo not given)	> 50.8
Nc1ccc(-c2ccc(N)c(C(=O)O)c2)cc1C(=O)O	> 40.8
Cc1c(Cl)cccc1NC(=S)NCCc1ccc(F)cc1	1.2 (≈ 3.72 µM)
COC(=O)c1sccc1NC(=O)CSCCc1ccccn1	> 50.5
Cc1cc(NC(=O)C(C)SCC(=O)N(C)Cc2c(F)cccc2Cl)no1 (stereo not given)	> 60

SMILES	solubility kinetic [µg/mL]
COc1ccccc1NC(=O)Cn1nc(C)n2cccc2c1=O	> 46.8
COc1nc(Nc2ccccc2F)nc(OC)n1	> 37.5
c1csc(-c2noc(CN3CCN4CCCC4C3)n2)c1 (stereo not given)	> 43.6
Cc1ccc(-c2ocnc2C(=O)Nc2nc(C)cs2)cc1	1.1 (≈ 3.67 µM)
Cc1cc(NC(=O)CCl)no1	> 26.2
Cc1nc(NC(=O)c2cc3ccccc3o2)sc1C	3.1 (≈ 11.4 µM)
CCOC(=O)C1(Cc2cccc(F)c2)CCN(C(=O)COC)CC1	47.2 (≈ 140 µM)
COc1cc(C(=O)OCC2CC(c3ccccc3)=NO2)cc(OC)c1OC (stereo not given)	38.2 (≈ 103 µM)
Cl.c1ccc2c(c1)CCCC2C1=NCCN1 (stereo not given)	> 35.5
CN1CCN(c2ccccc2NC(=O)c2cccc([N+](=O)[O-])c2)CC1	> 51.1
Cl.ClC(CCN1CCN(Cc2ccccc2)CC1)c1ccccc1 (stereo not given)	> 60.3
CNC(=O)/C(C#N)=C/c1c(N2CCCCCC2)nc2c(C)cccn2c1=O	50.4 (≈ 138 µM)
Cl.O=C(CCN1CCN(c2ccccc2F)CC1)c1ccc(Br)cc1	42.3
Cc1ccc([N+](=O)[O-])c(NC(=O)COC(=O)C2CC3CCCC(C2)C3=O)c1C (stereo not given)	> 58.3
COC(=O)c1c(C)oc(C)c1S(=O)(=O)NC(C)(C)C	> 43.4
Br.C(CCCN1CCCCC1)CCN1CCCCC1	61.8
COc1cc(NC(=O)c2ccccc2[N+](=O)[O-])ccc1NC(=O)c1cc2ccccc2o1	0.7 (≈ 1.62 µM)
O=C(CSc1ccccn1)Nc1cccc([N+](=O)[O-])c1	38 (≈ 131 µM)
Cc1ccc(NC(=O)CCc2ccc(S(=O)(=O)N3CCOCC3)cc2)c(O)c1	44.6 (≈ 110 µM)
